Publication PMC8037530, “Synthesis and Hybrid SAR Property Modeling of Novel Cholinesterase Inhibitors” (International Journal of Molecular Sciences, 2021)
Like-named read-outs stand apart in the source and are kept apart here.

How the values were obtained:
[1] = Determination of lipophilicity by RP-HPLC (capacity factor k); assay type: physicochemical; conditions: C18, isocratic MeOH 72%/H2O 28%, 40 °C
Method: The lipophilicity of all the target compounds was investigated by means of RP-HPLC determination of capacity factors k with a subsequent calculation of log k. The retention times of individual compounds were determined under isocratic conditions with methanol as an organic modifier in the mobile phase using end-capped non-polar C18 stationary RP columns.
The HPLC separation system Agilent 1200 series equipped with a DAD SL (Agilent Technologies) was used. A chromatographic column Symmetry® C18 5 μm, 4.6 × 250 mm, Part No. W21751W016 (Waters Corp., Milford, MA, USA) was applied. The HPLC separation process was monitored by the ChemStation for LC 3D chromatography software (Agilent Technologies). Isocratic elution by a mixture of MeOH p.a. (72%) and H2O-HPLC Mili-Q grade (28%) as a mobile phase was used for the determination of the capacity factor k. The total flow of the column was 1.0 mL/min, injection 20 μL, column temperature 40 °C, and sample temperature 10 °C. The detection wavelength of 210 nm was chosen. A KI methanolic solution was used for the determination of the dead times (tD). Retention times (tR) were measured in minutes. The capacity factors k were calculated according to the formula k = (tR − tD)/tD, where tR is the retention time of the solute and tD is the dead time obtained using an unretained analyte. Each experiment was repeated three times.

[2] = In vitro cell viability assay (CCK-8); assay type: cell-based; conditions: human, THP-1 cells (human monocytic leukemia), read-out: relative cell viability
Method: The human monocytic leukemia THP-1 cell line was selected for this purpose, as we described previously. Nor 2 neither 28 show negative effect on relative cell viability up to the concentration of 30 µM. The relative cell viability was around 100% at this concentration. It makes compounds 2 and 28 interesting for further pharmacological evaluation and allows them to become lead compounds.
Human monocytic leukemia THP-1 cells were used for in vitro antiproliferative assays. Cells were obtained from the European Collection of Cell Cultures (ECACC, Salisbury, UK) and routinely cultured in Roswell Park Memorial Institute RPMI 1640 medium supplemented with 10% fetal bovine serum (FBS), 2% L-glutamine, 1% penicillin and streptomycin (all from Sigma-Aldrich) at 37 °C with 5% CO2. Cells were passaged twice a week. The effect of the compounds on cell viability was determined using a Cell Counting Kit-8 (CCK-8, 2-(2-methoxy-4-nitrophenyl)-3-(4-nitrophenyl)-5-(2,4-disulfophenyl)-2H-tetrazolium, monosodium salt, Sigma) according to the manufacturer’s instructions. The compounds were dissolved in DMSO and added to the cell suspension in the RPMI 1640 medium without FBS (5 × 10^5 cells/mL). […] After this incubation period, the relative cell viability (the ratio between cells treated with compounds and cells treated only with DMSO) was determined by CCK-8 kit.

[3] = target: T1, BChE from equine serum (Equus caballus, UniProt P81908); assay: In vitro BChE inhibition, modified Ellman's method; assay type: biochemical; conditions: for SI (index selectivity) = IC50 (AChE)/IC50 (BChE): ratio IC50 AChE/IC50 BChE
T1 construct: BChE from equine serum; purchased Sigma, St. Louis, MO, USA; host or cells: equine serum
Method: (§1) The ability of all the prepared compounds to inhibit AChE from electric eel (Electrophorus electricus) and BChE from equine serum (both purchased from Sigma, St. Louis, MO, USA) was determined in vitro using a modified Ellman’s method, as described in detail elsewhere. This is a simple, rapid, and direct method to determine the SH and -S-S- group content in proteins. The enzyme activity is measured indirectly by quantifying the concentration of the 5-thio-2-nitrobenzoic acid ion formed in the reaction between the thiol reagent 5,5’-dithiobis-2nitrobenzoic acid (DTNB) and thiocholine, which is a product of acetylthiocholine hydrolysis catalyzed by cholinesterases. The effectiveness of the tested inhibitors is expressed as the IC50 values.
(§2) The enzyme activity in the final reaction mixture (2 mL) was 0.2 U/mL, the concentration of the substrate (acetylthiocholine or butyrythiocholine) was 40 µM, and the concentration of DTNB was 0.1 mM for all reactions. All reactions were carried out at 25 °C in the presence of phosphate-buffered saline (0.1 M, pH 7.4) in a glass cuvette with a 1 cm optical path. All the studied inhibitors were dissolved in DMSO (concentration 0.01 M) and then diluted in demineralized water as necessary. […] All measurements were carried out in triplicate, and the average values of the reaction rate (v0—reaction in the absence of the inhibitor, vi—reaction in the presence of the inhibitor) were used for construction of the dependence v0/vi vs. concentration of the inhibitor.

[4] = target: T2, AChE from electric eel (Electrophorus electricus) (Electrophorus electricus, UniProt O42275); assay: In vitro AChE inhibition, modified Ellman's method; assay type: biochemical
T2 construct: purchased Sigma, St. Louis, MO, USA
Method: as §1, §2

T1 sequence (P81908 whole entry): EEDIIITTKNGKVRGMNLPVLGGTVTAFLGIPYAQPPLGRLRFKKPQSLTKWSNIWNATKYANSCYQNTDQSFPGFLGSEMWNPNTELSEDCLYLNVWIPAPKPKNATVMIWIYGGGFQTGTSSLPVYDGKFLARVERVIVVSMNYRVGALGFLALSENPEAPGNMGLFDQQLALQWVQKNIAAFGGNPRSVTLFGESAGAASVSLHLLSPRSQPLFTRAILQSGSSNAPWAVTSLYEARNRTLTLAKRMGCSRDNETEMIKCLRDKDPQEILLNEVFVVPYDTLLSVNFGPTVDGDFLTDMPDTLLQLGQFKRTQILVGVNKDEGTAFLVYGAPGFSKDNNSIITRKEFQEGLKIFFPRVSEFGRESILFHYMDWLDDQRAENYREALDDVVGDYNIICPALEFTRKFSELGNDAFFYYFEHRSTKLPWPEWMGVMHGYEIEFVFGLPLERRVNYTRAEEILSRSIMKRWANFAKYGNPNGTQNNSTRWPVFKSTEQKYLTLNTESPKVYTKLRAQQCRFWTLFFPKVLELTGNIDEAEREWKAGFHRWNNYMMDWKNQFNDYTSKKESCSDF
T2 sequence (O42275 24-633): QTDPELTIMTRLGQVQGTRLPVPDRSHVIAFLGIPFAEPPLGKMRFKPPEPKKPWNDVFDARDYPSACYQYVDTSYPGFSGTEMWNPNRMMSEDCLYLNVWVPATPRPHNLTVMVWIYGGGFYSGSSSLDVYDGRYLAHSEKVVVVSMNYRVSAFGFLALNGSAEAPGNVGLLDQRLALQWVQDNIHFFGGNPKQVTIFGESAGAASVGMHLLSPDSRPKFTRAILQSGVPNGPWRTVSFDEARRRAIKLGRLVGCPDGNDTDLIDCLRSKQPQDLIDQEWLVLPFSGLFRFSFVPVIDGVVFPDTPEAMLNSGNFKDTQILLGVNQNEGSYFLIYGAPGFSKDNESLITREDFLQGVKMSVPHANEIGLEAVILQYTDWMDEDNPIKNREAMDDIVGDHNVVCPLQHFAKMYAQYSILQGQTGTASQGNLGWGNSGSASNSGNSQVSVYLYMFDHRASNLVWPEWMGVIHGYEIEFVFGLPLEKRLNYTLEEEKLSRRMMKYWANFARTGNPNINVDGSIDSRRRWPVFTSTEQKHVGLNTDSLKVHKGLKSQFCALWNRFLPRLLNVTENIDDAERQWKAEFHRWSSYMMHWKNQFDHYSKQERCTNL

SMILES | log k [1] | viability at 24 h, 30 µM [2] [%] | IC50 [3] [µM] | SI (index selectivity) = IC50 (AChE)/IC50 (BChE) [3] | IC50 [4] [µM] | IC50 ([3]; mean ± SD, n = 3, equine serum BChE, 25 °C, pH 7.4, read-out: IC50 BChE) [µM] | IC50 ([4]; mean ± SD, n = 3, electric eel AChE, 25 °C, pH 7.4, read-out: IC50 AChE) [µM]
COc1ccccc1NC(=O)c1ccc(NC(=O)OCc2ccccc2)cc1O [Compound 2, Benzyl{3-hydroxy-4-[(2-methoxyphenyl)carbamoyl]phenyl}carbamate] | 0.3368 | ~100 | 22.2 ± 0.53 | 2.26 | 50.1 ± 1.57 |  | 
O=C(Nc1ccc(C(=O)Nc2ccc(Cl)c(Cl)c2)c(O)c1)OCc1ccccc1 [Compound 24, Benzyl{4-[(3,4-dichlorophenyl)carbamoyl]-3-hydroxyphenyl}carbamate] | 0.6664 |  | 185 ± 6.13 | 0.31 | 58 ± 5.83 |  | 
O=C(Nc1ccc(C(=O)Nc2cc(Cl)cc(Cl)c2)c(O)c1)OCc1ccccc1 [Compound 25, Benzyl{4-[(3,5-dichlorophenyl)carbamoyl]-3-hydroxyphenyl}carbamate] | 0.9084 |  | 143 ± 3.69 | 0.35 | 50.62 ± 0.38 |  | 
O=C(Nc1ccc(C(=O)Nc2ccc(Br)cc2Br)c(O)c1)OCc1ccccc1 [Compound 26, Benzyl{4-[(2,4-dibromophenyl)carbamoyl]-3-hydroxyphenyl}carbamate] | 0.7366 |  | 262 ± 5.1 | 0.36 | 94.9 ± 0.97 |  | 
O=C(Nc1ccc(C(=O)Nc2cc(C(F)(F)F)cc(C(F)(F)F)c2)c(O)c1)OCc1ccccc1 [Compound 27, Benzyl{4-[(3,5-di(trifluoromethyl))carbamoyl]-3-hydroxyphenyl}carbamate] | 0.9667 |  |  | 0.41 |  | 146 ± 2.65 | 59.4 ± 3.38
O=C(Nc1ccc(C(=O)Nc2c(F)cc(F)cc2F)c(O)c1)OCc1ccccc1 [Compound 28, Benzyl{3-hydroxy-4-[(2,4,6-trifluorophenyl)carbamoyl]phenyl}carbamate] | -0.0131 | ~100 | 31 ± 2.11 | 1.61 | 49.87 ± 0.09 |  | 
O=C(Nc1ccc(C(=O)Nc2cc(F)c(F)c(F)c2)c(O)c1)OCc1ccccc1 [Compound 29, Benzyl{3-hydroxy-4-[(3,4,5-trifluorophenyl)carbamoyl]phenyl}carbamate] | 0.5169 |  | 183.7 ± 0.75 | 0.34 | 62.3 ± 0.75 |  | 
O=C(Nc1ccc(C(=O)Nc2c(Cl)cc(Cl)cc2Cl)c(O)c1)OCc1ccccc1 [Compound 31, Benzyl{3-hydroxy-4-[(2,4,6-trichlorophenyl)carbamoyl]phenyl}carbamate] | 0.3679 |  | 57.1 ± 1.72 | 1.63 | 93.1 ± 1.8 |  | 
O=C(Nc1ccc(C(=O)Nc2c(Br)cc(Br)cc2Br)c(O)c1)OCc1ccccc1 [Compound 32, Benzyl{3-hydroxy-4-[(2,4,6-tribromophenyl)carbamoyl]phenyl}carbamate] | 0.4427 |  | 56 ± 0.58 | 1.18 | 65.9 ± 2.81 |  | 
